Assay [1] deals with T1, E129D mutant 5-HT3 receptor (mouse 5-HT3A subunit) (Mus musculus, UniProt P23979, E129D).
T1 sequence (P23979 24-483 isoform P23979-2 E129D limits assumed): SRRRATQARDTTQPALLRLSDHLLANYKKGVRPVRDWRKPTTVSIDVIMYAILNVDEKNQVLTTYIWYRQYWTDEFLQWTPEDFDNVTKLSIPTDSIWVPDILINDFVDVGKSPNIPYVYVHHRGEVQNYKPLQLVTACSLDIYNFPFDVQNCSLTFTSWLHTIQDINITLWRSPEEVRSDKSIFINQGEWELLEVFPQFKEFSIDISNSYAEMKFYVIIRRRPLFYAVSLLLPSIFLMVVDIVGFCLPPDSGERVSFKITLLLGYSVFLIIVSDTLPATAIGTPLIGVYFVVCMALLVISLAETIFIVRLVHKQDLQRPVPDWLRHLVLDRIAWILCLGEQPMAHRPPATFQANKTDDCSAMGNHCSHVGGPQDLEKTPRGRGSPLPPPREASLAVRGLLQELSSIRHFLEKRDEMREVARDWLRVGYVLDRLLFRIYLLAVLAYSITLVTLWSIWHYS
The assay can be described thus: Agonist-induced currents, voltage clamp electrophysiology in Xenopus oocytes. The class given is cell-based.

The target of assay [2] is T2, WT 5-HT3 receptor (mouse 5-HT3A subunit) (Mus musculus, UniProt P23979).
T2 sequence (P23979 24-483 isoform P23979-2 limits assumed): T1 sequence (P23979 24-483 isoform P23979-2 E129D limits assumed) with D106E
Described as above. The class given is cell-based. To be noted: for nH (Hill coefficient): WT; for EC50: oocytes, holding potential −60 mV.

Assay [3] concerns the target T3, N128E mutant 5-HT3 receptor (mouse 5-HT3A subunit) (Mus musculus, UniProt P23979, N128E).
T3 sequence (P23979 24-483 isoform P23979-2 N128E limits assumed): T1 sequence (P23979 24-483 isoform P23979-2 E129D limits assumed) with N105E, D106E
Described as above. To be noted: for nH (Hill coefficient): N128E. In kind it is cell-based.

In assay [4] the target is T4, N128D mutant 5-HT3 receptor (mouse 5-HT3A subunit) (Mus musculus, UniProt P23979, N128D).
T4 sequence (P23979 24-483 isoform P23979-2 N128D limits assumed): T1 sequence (P23979 24-483 isoform P23979-2 E129D limits assumed) with N105D, D106E
Described as above. In kind it is cell-based.

The target in assay [5] is T5, N128Q mutant 5-HT3 receptor (mouse 5-HT3A subunit) (Mus musculus, UniProt P23979, N128Q).
T5 sequence (P23979 24-483 isoform P23979-2 N128Q limits assumed): T1 sequence (P23979 24-483 isoform P23979-2 E129D limits assumed) with N105Q, D106E
Described as above. In kind it is cell-based. To be noted: for nH (Hill coefficient): N128Q.

In assay [6] the target is T6, E129N mutant 5-HT3 receptor (mouse 5-HT3A subunit) (Mus musculus, UniProt P23979, E129N).
T6 sequence (P23979 24-483 isoform P23979-2 E129N limits assumed): T1 sequence (P23979 24-483 isoform P23979-2 E129D limits assumed) with D106N
The assay is described as above. In kind it is cell-based.

The target in assay [7] is T7, N128A mutant 5-HT3 receptor (mouse 5-HT3A subunit) (Mus musculus, UniProt P23979, N128A).
T7 sequence (P23979 24-483 isoform P23979-2 N128A limits assumed): T1 sequence (P23979 24-483 isoform P23979-2 E129D limits assumed) with N105A, D106E
The description is as above. In kind it is cell-based. To be noted: for nH (Hill coefficient): N128A.

The test system of assay [8] is Glu129 mutant 5-HT3 receptors. To be noted: any Glu129 mutant receptor in HEK cells; concentrations up to 20 nM; cited from earlier work.
Assay [9] deals with E129K mutant 5-HT3 receptor (mouse 5-HT3A subunit) (Mus musculus, UniProt P23979, E129K). Kind of assay: Single-point [3H]granisetron binding to solubilized oocyte preparations. To be noted: 0.5 nM [3H]granisetron.
Assay [10] addresses E129A mutant 5-HT3 receptor (mouse 5-HT3A subunit) (Mus musculus, UniProt P23979, E129A). Described as above. To be noted: 0.5 nM [3H]granisetron.
In assay [11] the test system is Asn128 mutant 5-HT3 receptors. To be noted: Asn128 mutant receptors in HEK cells; cited from earlier work.
The target of assay [12] is E129G mutant 5-HT3 receptor (mouse 5-HT3A subunit) (Mus musculus, UniProt P23979, E129G). Kind of assay: Single-point [3H]granisetron binding to solubilized oocyte preparations. To be noted: 0.5 nM [3H]granisetron.
The target of assay [13] is T6, E129N mutant 5-HT3 receptor (mouse 5-HT3A subunit). Kind of assay: Granisetron inhibition of 5-HT-induced responses in oocytes. The class given is cell-based. To be noted: 100 nM granisetron, EC50 concentration of 5-HT.
The target in assay [14] is T1, E129D mutant 5-HT3 receptor (mouse 5-HT3A subunit). Described as above. In kind it is cell-based. To be noted: EC50 concentration of 5-HT.

Changes are numbered by the printed parent chain. Where “and” joins values, the source holds several entries; their conditions need not be identical. Equal entries are not always repeated. Marks after values point to notes of the source that are not given here.

Chain of E129A mutant 5-HT3 receptor (mouse 5-HT3A subunit) (P23979 24-489 E129A): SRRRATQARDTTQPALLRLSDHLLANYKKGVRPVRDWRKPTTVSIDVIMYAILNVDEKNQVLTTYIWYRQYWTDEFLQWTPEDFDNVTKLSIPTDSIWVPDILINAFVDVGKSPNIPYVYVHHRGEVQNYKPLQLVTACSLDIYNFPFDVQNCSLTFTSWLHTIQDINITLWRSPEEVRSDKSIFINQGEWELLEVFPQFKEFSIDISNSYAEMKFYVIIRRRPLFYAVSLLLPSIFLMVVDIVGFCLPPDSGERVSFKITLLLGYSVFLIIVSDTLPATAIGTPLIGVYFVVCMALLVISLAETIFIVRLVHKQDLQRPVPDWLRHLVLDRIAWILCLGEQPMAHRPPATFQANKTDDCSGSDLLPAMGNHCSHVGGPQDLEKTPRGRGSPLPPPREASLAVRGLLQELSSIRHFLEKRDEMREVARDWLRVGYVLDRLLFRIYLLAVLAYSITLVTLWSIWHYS
Chain of E129G mutant 5-HT3 receptor (mouse 5-HT3A subunit) (P23979 24-483 isoform P23979-2 E129G limits assumed): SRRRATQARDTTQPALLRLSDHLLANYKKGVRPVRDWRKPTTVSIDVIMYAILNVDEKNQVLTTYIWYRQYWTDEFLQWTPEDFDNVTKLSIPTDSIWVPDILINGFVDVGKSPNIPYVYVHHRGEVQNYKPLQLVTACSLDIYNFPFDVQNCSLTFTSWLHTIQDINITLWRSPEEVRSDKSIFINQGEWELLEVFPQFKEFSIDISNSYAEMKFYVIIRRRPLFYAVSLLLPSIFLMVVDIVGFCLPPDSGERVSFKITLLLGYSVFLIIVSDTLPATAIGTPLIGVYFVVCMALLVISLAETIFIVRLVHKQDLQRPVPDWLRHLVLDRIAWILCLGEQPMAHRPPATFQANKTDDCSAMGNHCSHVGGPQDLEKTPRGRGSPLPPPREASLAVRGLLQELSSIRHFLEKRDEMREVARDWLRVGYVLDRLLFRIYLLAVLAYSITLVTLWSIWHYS
Chain of E129K mutant 5-HT3 receptor (mouse 5-HT3A subunit) (P23979 24-483 isoform P23979-2 E129K limits assumed): as the sequence (P23979 24-483 isoform P23979-2 E129G limits assumed) above, with G106K counted along it

For `NCCc1c[nH]c2ccc(F)cc12` [5-FT, 5-fluorotryptamine], the EC50 in [1] was 8.3 µM; in assay [2] (pEC50, WT), 17.8 µM; in [3], 13.8 µM; in assay [4], 17.8 µM; in [5] it was 94 µM; in assay [6] it was 11.7 µM. Also, the EC50 in [7] is 10 µM. The “nH (Hill coefficient)” value is on record as 1.95 ± 0.30 in assay [1] (E129D); 2.71 ± 0.24 in assay [2]; 1.97 ± 0.18 in [3]; 2.61 ± 0.28 in [4] (N128D); 2.38 ± 0.58 in assay [5]; 1.25 ± 0.13 ^b in assay [6] (E129N). In addition, the “nH (Hill coefficient)” value in assay [7] is 2.34 ± 0.75.
Turning to `CN1C2CCCC1CC(NC(=O)c1nn(C)c3ccccc13)C2` (stereo not shown) [[^3H]granisetron], in assay [8], the specific binding result is given as “no specific binding”. In addition, the specific radioligand binding entry in assay [9], in assay [10] and in assay [12] was “No specific radioligand binding” each time. For the same molecule, the “binding affinity vs WT” value in assay [11] is given as “no significant differences”.
As to `CN1C2CCCC1CC(NC(=O)c1nn(C)c3ccccc13)C2` (stereo not shown) [granisetron], the “block of the response to 5-HT” value is “did not block” in assay [13]; 80 ± 5% and ~80% in [14] (10 nM granisetron); 96 ± 3% in [14] (100 nM granisetron).
As to `NCCc1c[nH]c2ccccc12` [tryptamine], the EC50 was 120 µM in [2] (EC50, WT); 117 µM in assay [2] (pEC50, WT); 59 µM in [3]; 240 µM in assay [5]; 91 µM in [7]. Besides, the “nH (Hill coefficient)” value turned out to be 2.86 ± 0.14 in assay [2], 2.90 ± 0.53 in assay [3], 3.10 ± 0.39 in assay [5] and 2.90 ± 0.68 in assay [7].

Usually EC50 stands for the midpoint of the concentration-response curve. A high value points to weaker potency.

The values above are taken from paper PMC2649372 (Biochemistry, 2008).
